What was measured:
Format in all cases: cell-based
[1] = system: HIV-1 ADA; assay: Infectivity of virions from HIV-1 ADA-infected macrophages on indicator P4-CCR5 cells; conditions: TO-901317 500 nM from day 7 after infection for 7 more days; virions adjusted according to p24; versus virions from untreated cells
Method: (§1) Human monocyte-derived macrophages were infected with HIV-1 ADA or mock-infected, and 7 days after infection were treated or not with LXR agonist, TO-901317 (500 nM), for 7 more days.
B—Virions were collected from culture supernatants of LXR agonist-treated and untreated (control) cells on day 10 and day 14 (pooled together), adjusted according to p24 content and analyzed for infectivity on indicator P4-CCR5 cells. Experiment was performed in triplicate and results (mean±SD) are presented as percent infectivity of virions produced by control cells; *p<0.001.
(§2) To determine whether impairment of cholesterol efflux has a role in HIV biology, we compared infectivity of HIV virions produced from monocyte-derived macrophages stimulated or not with an LXR agonist, TO-901317. We hypothesized that if impairment of cholesterol efflux is a specific mechanism to increase HIV replication, then agents counteracting this effect should have anti-HIV activity. […] Virions were collected from TO-901317-treated and untreated cells, adjusted according to p24 content, and analyzed for infectivity using indicator P4-CCR5 cells.
Infectivity assay. Virus infectivity was analyzed using P4-CCR5 indicator cells that express B-galactosidase under control of HIV-1 LTR. […] The plate was incubated at 37° C. for 1.5 hours and OD readings were taken at 420 nm.

[2] = system: Human monocyte-derived macrophages infected with HIV-1 ADA; assay: Cholesterol efflux to apoA-I from HIV-1 ADA-infected monocyte-derived macrophages; conditions: TO-901317 500 nM added at day 7 after infection, kept 7 more days; efflux measured on day 21 after infection
Method: as §1
A—Cholesterol efflux to apoA-I was measured on day 21 after infection. *p<0.01 (versus uninfected cells not treated with TO-901317), *p<0.01 (versus HIV-infected cells not treated with TO-901317).
as §2, with “activity. LXR agonists up-regulate expression of ABCA1 at a transcriptional level and stimulate cholesterol efflux from various cell types, including human monocyte-derived macrophages ([47] and FIG. 9A).” for “activity.”
Cholesterol and phospholipid efflux from RAW264.7 cells. […] For cholesterol efflux analysis, aliquots of medium and cells were counted. […] The efflux was calculated as radioactivity in the medium/(radioactivity in the medium+radioactivity remaining in the cells)×100%. […]

[3] = system: HIV-1 ADA virions; assay: Analysis of virion-associated cholesterol ([3H]cholesterol incorporation into virions); conditions: virions from macrophages treated with 500 nM TO-901317 versus untreated cells; normalized according to p24
Method: C—Incorporation of [^3H]cholesterol into virions produced by LXR agonist-treated and untreated (control) cells was measured in triplicate and results (mean±SD) are presented relative to cholesterol in the virions produced by control cells; *p<0.001.
as §2, with “activity. LXR agonists up-regulate expression of ABCA1 at a transcriptional level and stimulate cholesterol efflux from various cell types, including human monocyte-derived macrophages ([47] and FIG. 9A).” for “activity.”
Analysis of virion-associated cholesterol. […] Culture supernatants were collected every 3 days over the period of 2 weeks, pooled, and virions were pelleted by ultracentrifugation, normalized according to p24 value, and the amount of incorporated [^3H]cholesterol counted on a beta-counter.

## O=S(=O)(c1ccccc1)N(CC(F)(F)F)c1ccc(C(O)(C(F)(F)F)C(F)(F)F)cc1 [TO-901317]
[1]
  reduction of infectivity of virions produced from macrophages treated with LXR agonist: about 80%
[2]
  effect on impairment of cholesterol efflux to apoA-I by HIV-1 infection: prevented the impairment of cholesterol efflux
[3]
  virion-associated cholesterol: significantly diminished

From patent publication US8470526B2, “Method of suppressing human immunodeficiency virus (HIV) replication in a subject by administering a liver X receptor (LXR) agonist” (The George Washington University, priority 2005, dated 2013)
